This passage reports remaining activity results from publication PMC5564600 (Oncotarget, 2017).

Experiment in all cases: biochemical
Common to all, as to format: binding

The target of test [1] is T1, panel of 442 kinases (Homo sapiens, UniProt P15735).
T1 construct: purchased Ambit Biosciences (scanMAXX KINOMEscan)
T1 sequence (P15735 1-406): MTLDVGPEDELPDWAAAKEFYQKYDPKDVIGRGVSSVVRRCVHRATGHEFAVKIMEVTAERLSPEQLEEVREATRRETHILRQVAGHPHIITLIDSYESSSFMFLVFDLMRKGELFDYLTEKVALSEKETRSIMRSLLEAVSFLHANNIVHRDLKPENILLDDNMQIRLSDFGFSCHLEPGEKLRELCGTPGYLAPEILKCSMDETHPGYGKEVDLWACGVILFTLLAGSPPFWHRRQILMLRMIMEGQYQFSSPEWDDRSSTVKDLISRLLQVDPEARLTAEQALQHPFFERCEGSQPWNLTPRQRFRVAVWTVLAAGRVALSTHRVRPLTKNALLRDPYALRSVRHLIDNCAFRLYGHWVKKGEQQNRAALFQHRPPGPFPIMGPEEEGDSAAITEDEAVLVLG
Particulars: kinase PHKG2; for remaining activity at 1 µM: read-out: % of control at 1 µM.

For test [2], the target named is T2, panel of 442 kinases (Homo sapiens, UniProt P36888).
T2 construct: purchased Ambit Biosciences (scanMAXX KINOMEscan)
T2 sequence (P36888 27-993): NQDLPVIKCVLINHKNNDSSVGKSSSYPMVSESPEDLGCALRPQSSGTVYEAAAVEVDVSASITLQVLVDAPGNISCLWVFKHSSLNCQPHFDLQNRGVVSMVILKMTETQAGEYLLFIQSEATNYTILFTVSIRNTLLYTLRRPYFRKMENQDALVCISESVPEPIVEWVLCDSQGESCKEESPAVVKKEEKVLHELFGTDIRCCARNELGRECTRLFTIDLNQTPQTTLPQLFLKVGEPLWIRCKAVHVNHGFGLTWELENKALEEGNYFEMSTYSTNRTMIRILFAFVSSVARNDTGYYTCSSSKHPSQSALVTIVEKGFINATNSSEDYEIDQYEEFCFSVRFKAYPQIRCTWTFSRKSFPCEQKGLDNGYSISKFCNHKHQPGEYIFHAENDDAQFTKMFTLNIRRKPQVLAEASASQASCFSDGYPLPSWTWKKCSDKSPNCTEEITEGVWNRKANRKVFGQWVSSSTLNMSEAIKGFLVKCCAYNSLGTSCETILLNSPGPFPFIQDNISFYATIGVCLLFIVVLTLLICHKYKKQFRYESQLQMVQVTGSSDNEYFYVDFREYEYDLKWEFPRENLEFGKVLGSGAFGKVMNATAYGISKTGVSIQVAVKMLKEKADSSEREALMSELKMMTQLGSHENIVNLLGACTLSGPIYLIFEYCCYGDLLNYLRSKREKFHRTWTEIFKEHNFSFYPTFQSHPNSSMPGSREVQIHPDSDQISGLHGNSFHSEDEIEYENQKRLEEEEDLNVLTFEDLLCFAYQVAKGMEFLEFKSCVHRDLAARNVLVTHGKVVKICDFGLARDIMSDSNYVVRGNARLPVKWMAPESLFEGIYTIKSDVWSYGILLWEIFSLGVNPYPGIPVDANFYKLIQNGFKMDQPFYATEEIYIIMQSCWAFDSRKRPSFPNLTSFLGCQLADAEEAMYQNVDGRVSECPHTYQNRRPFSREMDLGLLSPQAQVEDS
Particulars: FLT3; for remaining activity at 1 µM: read-out: % of control at 1 µM.

Test [3] deals with T3, panel of 442 kinases (Homo sapiens, UniProt Q16566).
T3 construct: purchased Ambit Biosciences (scanMAXX KINOMEscan)
T3 sequence (Q16566 1-473): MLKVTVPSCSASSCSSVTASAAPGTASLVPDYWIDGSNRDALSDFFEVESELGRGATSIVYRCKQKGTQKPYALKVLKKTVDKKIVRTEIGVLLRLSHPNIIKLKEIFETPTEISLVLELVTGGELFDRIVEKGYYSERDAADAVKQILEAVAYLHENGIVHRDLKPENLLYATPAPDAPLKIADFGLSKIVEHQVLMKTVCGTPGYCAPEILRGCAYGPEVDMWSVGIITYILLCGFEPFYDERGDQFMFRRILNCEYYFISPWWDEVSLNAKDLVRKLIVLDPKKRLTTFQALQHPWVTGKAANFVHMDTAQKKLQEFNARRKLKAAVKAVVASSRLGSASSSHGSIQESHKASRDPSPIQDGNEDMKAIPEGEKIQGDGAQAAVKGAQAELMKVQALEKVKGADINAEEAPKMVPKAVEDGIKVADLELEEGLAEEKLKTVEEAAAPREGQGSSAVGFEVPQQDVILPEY
As to conditions: CAMK4; for remaining activity at 1 µM: read-out: % of control at 1 µM.

Test [4] has as its target T4, panel of 442 kinases (Homo sapiens, UniProt P49761).
T4 construct: purchased Ambit Biosciences (scanMAXX KINOMEscan)
Particulars: CLK3; for remaining activity at 1 µM: read-out: % of control at 1 µM.

For test [5], the target named is T5, panel of 442 kinases (Homo sapiens, UniProt O15264).
T5 construct: purchased Ambit Biosciences (scanMAXX KINOMEscan)
T5 sequence (O15264 1-365): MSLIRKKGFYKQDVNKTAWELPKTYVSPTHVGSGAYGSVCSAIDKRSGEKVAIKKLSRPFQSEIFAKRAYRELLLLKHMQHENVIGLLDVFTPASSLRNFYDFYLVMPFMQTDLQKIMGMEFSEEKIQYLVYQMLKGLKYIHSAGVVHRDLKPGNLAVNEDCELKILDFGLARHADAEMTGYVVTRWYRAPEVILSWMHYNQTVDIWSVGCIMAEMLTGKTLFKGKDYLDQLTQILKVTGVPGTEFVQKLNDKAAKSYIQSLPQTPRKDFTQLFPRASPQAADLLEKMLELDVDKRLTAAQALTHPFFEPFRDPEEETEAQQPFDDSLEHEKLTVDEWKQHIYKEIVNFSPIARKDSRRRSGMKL
Particulars: kinase p38-delta; for remaining activity at 1 µM: read-out: % of control at 1 µM.

Test [6] addresses T6, panel of 442 kinases (Homo sapiens, UniProt P00533, L858R).
T6 construct: purchased Ambit Biosciences (scanMAXX KINOMEscan)
Particulars: EGFR(L858R); for remaining activity at 1 µM: read-out: % of control at 1 µM.

Where [7] appears, read: 10 µM, read-out: % of control at 10 µM.

T6 sequence (P00533 25-1210 L858R): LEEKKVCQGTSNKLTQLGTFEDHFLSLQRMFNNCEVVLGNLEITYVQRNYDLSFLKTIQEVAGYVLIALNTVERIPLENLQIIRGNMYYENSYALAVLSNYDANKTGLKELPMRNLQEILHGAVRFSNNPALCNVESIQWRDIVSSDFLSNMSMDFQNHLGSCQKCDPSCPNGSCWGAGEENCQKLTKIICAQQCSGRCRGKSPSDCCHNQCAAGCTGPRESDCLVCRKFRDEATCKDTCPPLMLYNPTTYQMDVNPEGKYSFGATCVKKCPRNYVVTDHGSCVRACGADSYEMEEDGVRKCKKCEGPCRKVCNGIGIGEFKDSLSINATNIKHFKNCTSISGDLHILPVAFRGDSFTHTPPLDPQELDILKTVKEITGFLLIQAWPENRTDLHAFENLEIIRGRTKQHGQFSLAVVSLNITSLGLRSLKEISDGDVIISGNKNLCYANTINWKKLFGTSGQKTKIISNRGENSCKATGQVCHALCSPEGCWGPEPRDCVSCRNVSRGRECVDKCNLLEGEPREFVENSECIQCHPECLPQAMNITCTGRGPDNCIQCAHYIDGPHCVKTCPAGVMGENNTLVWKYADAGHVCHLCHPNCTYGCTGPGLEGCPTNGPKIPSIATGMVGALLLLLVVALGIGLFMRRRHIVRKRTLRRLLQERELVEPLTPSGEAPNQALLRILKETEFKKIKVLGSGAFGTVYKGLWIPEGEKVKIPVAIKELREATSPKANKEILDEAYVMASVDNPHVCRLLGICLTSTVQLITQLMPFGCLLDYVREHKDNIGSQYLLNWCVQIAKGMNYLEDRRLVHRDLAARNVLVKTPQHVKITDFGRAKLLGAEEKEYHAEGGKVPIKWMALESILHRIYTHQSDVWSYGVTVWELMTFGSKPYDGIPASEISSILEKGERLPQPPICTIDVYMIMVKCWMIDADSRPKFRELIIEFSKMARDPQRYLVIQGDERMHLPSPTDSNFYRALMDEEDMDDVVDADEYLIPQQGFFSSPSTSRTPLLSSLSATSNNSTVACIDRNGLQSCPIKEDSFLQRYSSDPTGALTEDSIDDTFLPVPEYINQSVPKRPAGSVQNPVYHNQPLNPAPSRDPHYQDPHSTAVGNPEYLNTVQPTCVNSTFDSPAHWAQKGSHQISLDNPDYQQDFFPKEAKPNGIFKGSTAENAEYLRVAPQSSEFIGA
T4 sequence (P49761 whole entry): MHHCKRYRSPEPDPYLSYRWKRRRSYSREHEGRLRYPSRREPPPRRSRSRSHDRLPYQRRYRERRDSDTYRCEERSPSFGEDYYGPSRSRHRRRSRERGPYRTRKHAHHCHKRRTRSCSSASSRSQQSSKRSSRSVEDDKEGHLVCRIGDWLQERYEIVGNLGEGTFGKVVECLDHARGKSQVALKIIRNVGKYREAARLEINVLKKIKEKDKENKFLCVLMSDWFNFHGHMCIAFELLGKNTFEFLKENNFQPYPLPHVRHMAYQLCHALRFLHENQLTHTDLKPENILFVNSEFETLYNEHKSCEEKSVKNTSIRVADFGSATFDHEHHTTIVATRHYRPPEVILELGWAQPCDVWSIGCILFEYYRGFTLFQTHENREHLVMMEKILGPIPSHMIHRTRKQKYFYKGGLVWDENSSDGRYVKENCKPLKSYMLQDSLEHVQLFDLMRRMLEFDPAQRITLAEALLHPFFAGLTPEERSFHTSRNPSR

With `COc1ncc(-c2ccc3nccc(-c4ccnnc4)c3c2)cc1NS(=O)(=O)c1ccc(F)cc1F` [Omipalisib], the remaining activity at 1 µM came to 100% on panel of 442 kinases [1]; 100% at panel of 442 kinases [2]; 100% at panel of 442 kinases [3]; 93% on panel of 442 kinases [4]; 94% on panel of 442 kinases [5]; 83% on panel of 442 kinases [6].
As for `Cn1c(=O)n(-c2ccc(C(C)(C)C#N)cc2)c2c3cc(-c4cnc5ccccc5c4)ccc3ncc21` [Dactolisib, 2-methyl-2-[4-(3-methyl-2-oxo-8-quinolin-3-yl-2,3-dihydroimidazo[4,5-c]quinolin-1-yl)-phenyl] propionitrile], the remaining activity at 1 µM on panel of 442 kinases [1] was 100%; on panel of 442 kinases [2], 67%; on panel of 442 kinases [4] it was 50%; on panel of 442 kinases [5] it was 56%.
As to `Nc1cc(C(F)(F)F)c(-c2cc(N3CCOCC3)nc(N3CCOCC3)n2)cn1` [Buparlisib], the remaining activity at 1 µM at panel of 442 kinases [1] amounted to 100%; at panel of 442 kinases [2], 90%; on panel of 442 kinases [3], 89%; at panel of 442 kinases [4], 100%; at panel of 442 kinases [5], 73%; at panel of 442 kinases [6] it was 100%. For the same compound, the remaining activity at 10 µM was found to be 100% on panel of 442 kinases [1] (setting [7]); 81% on panel of 442 kinases [2] (setting [7]); 100% at panel of 442 kinases [3] (setting [7]); 94% on panel of 442 kinases [4] (setting [7]); 100% on panel of 442 kinases [5] (setting [7]); 100% on panel of 442 kinases [6] (setting [7]).
`FC(F)c1nc2ccccc2n1-c1nc(N2CCOCC2)nc(N2CCOCC2)n1` [ZSTK474, 2-(difluoromethyl)-1-[4,6-di(4-morpholinyl)-1,3,5-triazin-2-yl]-1H-benzimidazole]: the remaining activity at 1 µM turned out to be 100% at panel of 442 kinases [1]; 100% on panel of 442 kinases [2]; 92% at panel of 442 kinases [3]; 100% at panel of 442 kinases [4]; 100% at panel of 442 kinases [5]; 100% at panel of 442 kinases [6].
